Columns and labels:
IgE [1] = test: Serum IgE response induced by FF1-4D5 + H∂A1 anti-IgD antibodies (ELISA, Assay A / Assay F); format: in vivo, mouse (Balb/c female)
Experimental: Mouse hybridoma cells expressing either FF1-4D5 antibody or H∂A1 antibody are thawed, established in culture, and incubated in mice as ascite tumors. FF1-4D5 antibody is a mouse IgG2a monoclonal antibody of the b allotype that binds the Fd fragment of the ∂ chain of the a allotype IgD which activates β cells through antigen internalization and processing, promoting cognate interactions with antigen-specific T cells (D. K. Goroff et al., J. Immunol. 136: 2382 (1986)). H∂A1 antibody is a mouse IgG2b of the b allotype that binds the Fc fragment of the ∂ chain of the a allotype IgD which activates β cells through crosslinking IgD (I. M. Zitron and B. L. Clevinger, J. Exp. Med. 152: 1135 (1980)). Each antibody is purified from their respective ascites tumor fluid. […] Serum from the injected mice is recovered and the mean concentration of IgE determined.
Serum levels of IgE are determined and IgE levels are shown to be inhibited in a dose dependent manner.
ELISA (enzyme linked immunosorbant assay) measurements of IgE are as follows. About 5 μg of B1E3 antibody in 100 μl borate buffered saline (pH8.5) is added to wells of a NuncImmulon II 96 well plate (DiRuscio & Assoc., St. Louis, Mo.) at 37° C. for 90 minutes. The non-bound antibody is removed by flicking the plate. Unreacted sites on the plastic plate are blocked by adding about 200 μl of a 2% solution of newborn bovine serum (NBS) in PBS at 37° C. for 60 minutes. The standard IgE (or an unknown murine serum sample) is diluted to between about 4 ng/ml-256 ng/ml in Hanks-HS (20 mM Hepes, 2% NBS in Hanks Balanced Salt Solution, Gibco, Grand Island, N.Y.) or to 1/200 to 1/1000 in Hanks-HS respectively. 100 μl of standard (or unknown dilutions) are added in triplicate to the wells of the plate and allowed to absorb to B1E3 antibody at about 37° C. for 2-4 hours. The solution is removed by flicking the plate and each well is washed with about 0.5 ml 0.05% Tween 20-PBS 5 times. About 100 μl of biotinylated R1E4, called the primary antibody, diluted to 200 ng/ml is added to all wells and incubated at about 4° C. overnight. The solution is removed by flicking the plate and washed 5 times as described above. The developing reagent (Avidin and biotin-horse radish peroxidase) is incubated in 2% NBS in PBS at ambient temperature for 30 minutes, according to manufacturer's specifications (Vector Laboratories, Burlingame, Calif.). About 100 μl of developing reagent is added to each well and incubated at ambient temperature for 30 minutes. Colorimetric substrate for the developing reagent (ABTS peroxidase substrate system, KPL, Gaithersburg, Md.) is prepared by mixing equal volumes of solutions A and B and incubating at ambient temperature for 60 minutes. The developing reagent solution is removed by flicking the plate and washed 5 times as described above. About 100 μl of the mixture of substrates is added to each well and incubated at ambient temperature for 60 minutes. The optical density of each well is determined on a BioTek ELISA reader (Biotek Instruments, Inc., Burlington, Vermont) and the absorbance data transferred electronically to a DEC VAX mainframe computer. A standard curve is fitted to the IgE standard optical densities using straight line, linear regression statistical fits. IgE in the unknown serum samples is determined by comparing the optical density of the unknown to the standard curve and multiplying that number by the dilution of serum used in the assay.
Stimulation of a transient serum IgE response in mouse with two monoclonal antibodies directed against IgD is carried out as follows.
Mouse hybridoma cells expressing either FF1-4D5 antibody or H∂Al antibody are thawed, established in culture, and incubated in CB6 F1 female mice as an ascites tumor and each immunoglobulin is purified from the ascites fluid as described above. […]

IgE [2] = test: ED50 for inhibition of IgE calculated from the examples; format: in vivo, mouse; conditions: dose to achieve 50% inhibition of IgE
Experimental: From the data in the above examples, the effective dose of each prostaglandin to achieve 50% inhibition of IgE (ED50) was calculated.

[3] = Diarrheal effects in rats; conditions: rat, in vivo, po
Experimental: Briefly, adult Charles River male rats weighing 210-230 g were individually housed and fasted with water available ad libitum for 24 hours prior to the test. The animals (N=6-12) received logarithmically graded prostaglandin doses orally. Immediately after administration, the animals were returned to their cages, and diarrhea, if any, was assessed on an all or none basis for 8 hours after drug treatment. The ED50 and relative potency values were calculated by the logistic method of Berkson.

IgG1 = test: Serum IgG1 in anti-IgD stimulated mice (two site sandwich ELISA, Assay B); format: in vivo, mouse (Balb/c female); conditions: 40 μg days 3 and 4; for IgG1 ± SD: Table 11
IgG2a = test: Serum IgG2a in anti-IgD stimulated mice (two site sandwich ELISA, Assay C); format: in vivo, mouse (Balb/c female); conditions: 40 μg days 3 and 4; for IgG2a ± SD: Table 11
Experimental: Sera from mice treated with compounds in accordance with the method of the invention are analyzed for levels of IgG1, IgG2a, IgG3, and IgM.
Measurement of mouse IgG2a by a two site sandwich ELISA is performed in substantial accordance with the teaching of Assay B except with the following changes. NuncImmulon II plates are used in this assay. The IgG2a standard is purchased from Southern Biotech. The standard curve is linear between 4-250 ng/ml. Serum containing IgG2a is diluted 1/6400 to 1/1,000,000. About a 1/6,000 dilution of goat anti mouse IgG2a (Southern Biotech) conjugated to alkaline phosphatase is used.
Sera from the mice described in Example 13 are analyzed for the levels of IgG1, IgG2a, and IgG3 by Assays B, C, and D, respectively.
Two groups of 4 Balb/c female mice per group are injected with both 100 μg FF1-4D5 antibody and 100 μg H∂A1 antibody. One of these groups is a stimulated control designated Group B. On day 3 and 4, the other group is injected with 40 μg (±) methyl 11α, 16-dihydroxy-1-methyl-9-oxoprosta-4Z,13E-dien-1-oate. Another group is injected with only PBS as an unstimulated control (Group A). On day -1 and 8, 50-100 μl of serum is recovered and analyzed for IgE, IgG1 and IgG2a by Assays A, B, and C, respectively.
3 groups of 4 Balb/c female mice per group are injected with both 100 μg FF1-4D5 antibody and 100 μg H∂A1 antibody on day 0. Group A is given no further treatment. On day 3 and 4, one group of mice is injected with 20 μg (±) methyl 2-[2-[3R-3α-hydroxy-2β-(4-hydroxy-4-methyl-1E-octenyl-5-oxo-1α-cyclopentyl]-methyl]cyclopropanebutanoate (Group B) and another group with 20 μg (±) methyl 2-[2-[3R-3α-hydroxy-2β-(4-hydroxy-4-methyl-1E-octenyl)-5-oxo-1α-cyclopentyl]ethyl]cyclopropanepropanoate (Group C) as in Example 13. On day -1 and 8, 50-100 μl of serum is recovered and analyzed for IgE, IgG1, IgG2a and IgG3 by Assays A, B, C and D, respectively. The selectivity of inhibition of IgE is shown in Table 12.
Three groups of 5 Balb/c female mice per group are injected with both 100 μg FF1-4D5 antibody and 100 μg H∂A1 antibody on day 0. Group A is a control with no further treatment. On day 3 and 4, the mice are injected with 20 μg (±) methyl 11α,16-dihydroxy-4,4,16-trimethyl-9-oxoprosta-13E-en-1-oate (Group B) or 20 μg (±) methyl 11α,16-dihydroxy-16-methyl-9-oxoprosta-3,5Z,13E-trien-1-oate (Group C) as in Example 13. On day -1 and 8, […] of serum is recovered and analyzed for IgE, IgG1, IgG2a, IgG3 and IgM by Assays A, B, C, D and E, respectively.

[4] = Table 15, 20 μg days 3 and 4, day 8 (control 5090)
[5] = Table 15, 20 μg days 3 and 4, day -1 baseline before treatment
[6] = Table 16, 10 μg days 3 and 4, day 8 (control 8548)
[7] = Table 16, 10 μg days 3 and 4, day -1 baseline before treatment
[8] = day -1 baseline before treatment

Row | SMILES | de novo IgE synthesis (IgE [1]; 20 μg days 3 and 4, Example 26) | IgE ± SD (IgE [1]; [4]) | IgE ± SD (IgE [1]; [5]) | ED50 IgE Inhibition (IgE [2]) | de novo IgE synthesis (IgE [1]; 10 μg days 3 and 4, Example 27) | IgE ± SD (IgE [1]; [6]) | IgE ± SD (IgE [1]; [7]) | TD50 at 8 h [3] | also measured
1 | CCCCC(C)(O)C/C=C/[C@H]1[C@H](O)CC(=O)[C@@H]1CCCCCCC(=O)O (mixture of isomers) [(±) 11α,16-dihydroxy-16-methyl-9-oxo-prost-13E-en-1-oic acid] | inhibit de novo IgE synthesis | 1499 ± 132 ng/mL | 1029 ± 362 ng/mL | – | – | – | – | – | –
2 | CCCCC(C)(O)C/C=C/[C@H]1[C@H](O)CC(=O)[C@@H]1CCCCCCC(=O)OC (mixture of isomers) [(±) methyl 11α,16-dihydroxy-16-methyl-9-oxoprost-13E-en-1-oate] | – | – | – | 1.5 μg/mouse/TID | inhibit de novo IgE synthesis | 2123 ± 257 ng/mL | < 1600 ng/mL | 0.36 mg/kg | –
3 | CCCCC(C)(O)C/C=C/[C@H]1[C@H](O)CC(=O)[C@@H]1CCCCCCC(=O)OC(C)C (relative stereo) [(±) methylethyl-11α,16-dihydroxy-16-methyl-9-oxoprost-13E-en-1-oate] | – | – | – | 1.5 μg/mouse/TID | – | 2127 ± 149 ng/mL | < 1600 ng/mL | – | –
4 | CCCCC(C)(O)C/C=C/[C@H]1[C@H](O)CC(=O)[C@@H]1CC/C=C\CCC(=O)OC (mixture of isomers) [(±) methyl 11α,16-dihydroxy-16-methyl-9-oxoprosta-4Z,13E-dien-1-oate] | – | – | – | 4.0 μg/mouse/TID | – | – | – | 0.049 mg/kg | de novo IgE synthesis (IgE [1]; 40 μg days 3 and 4): inhibits de novo IgE synthesis; IgE ± SD (IgE [1]; Table 11, 40 μg days 3 and 4, day 8 (control 15890)): 3973 ± 905 ng/mL; IgE ± SD (IgE [1]; Table 11, 40 μg days 3 and 4, day -1 baseline before treatment): 1717 ± 313 ng/mL; effect on IgG1 (IgG1): does not effect IgG1 or IgG2a; IgG1 ± SD (IgG1; day 9 (control 19800)): 37728 ± 6913 µg/mL; IgG1 ± SD (IgG1; [8]): 2331 ± 2212 µg/mL; effect on IgG2a (IgG2a): does not effect IgG1 or IgG2a; IgG2a ± SD (IgG2a; day 9 (control 1056)): 1058 ± 202 µg/mL; IgG2a ± SD (IgG2a; [8]): 160 ± 130 µg/mL
5 | CCCCC(C)(O)CCC[C@H]1[C@H](O)CC(=O)[C@@H]1CCCCCCC(=O)OC (mixture of isomers) [(±) methyl-11α,16-dihydroxy-16-methyl-9-oxoprostan-1-oate] | – | – | – | 4.8 μg/mouse/TID | inhibit de novo IgE synthesis | 3844 ± 238 ng/mL | < 1600 ng/mL | – | –
6 | CCCCC(C)(O)C/C=C/[C@H]1[C@H](O)CC(=O)[C@@H]1CCCCCCC(=O)Oc1ccc(NC(C)=O)cc1 (mixture of isomers) [(±) 4-(acetylamino)phenyl-11α,16-dihydroxy-16-methyl-9-oxoprost-13E-en-1-oate] | inhibit de novo IgE synthesis | 1880 ± 319 ng/mL | < 800 ng/mL | 1.0 μg/mouse/TID | – | – | – | – | –
